# Values quoted from earlier work in patent US20240268433A1, “Nutritional Compositions for Preserving Muscle Mass” (Dutch Medical Food B.V., priority 2021, published 2024).
# Legend:
# [1] = test system: elderly adults exposed to bedrest; conditions: bed rest induced muscle atrophy
# [2] = test system: female individuals that complain about their sleep quality
# [3] = test system: adults between the age of 25 and 59 years
# [4] = test system: GABAA receptor; conditions: chicken; administered with serine
compound,measurement,setting,value
"CC(C)(O)CC(=O)O [HMB, Beta-hydroxy beta-methylbutyrate]",derangements in skeletal muscle metabolism and mitochondria,[1],able to attenuate and prevent derangements in skeletal muscle metabolism and mitochondria
NCC(=O)O [glycine],daytime sleepiness,[2]; especially in the morning,positive effect
same,subjective quality of sleep,[2]; ingestion prior to sleep,beneficial effect on the subjective quality of sleep
N[C@@H](CO)C(=O)O [serine],resistance or rebound insomnia after discontinuation of ingestion,[3]; after discontinuation of ingestion,did not appear to suffer from resistance or occurrence of rebound insomnia
same,"quality of sleep (sleep initiation, nighttime awakenings)",[3]; ingestion about 30 minutes before going to sleep,beneficial effect on the quality of sleep
picrotoxin,effect on sedative and hypnotic effect of serine,[4],attenuated the sedative and hypnotic effect of serine
